Assay results reported in patent publication US7345067B2, “Aniline derivatives, their manufacture and use as pharmaceutical agents” (Hoffmann-La Roche Inc., priority 2003, dated 2008).

Columns and labels:
[1] = target: T1, PPARα (Homo sapiens, UniProt Q07869); experiment: Radioligand binding assay (SPA), PPARα receptor binding; settings: GST-PPARα-LBD fusion protein
T1 construct: PPARα (aa 167 to 469); made in house; host or cells: E. coli BL21 (pLysS)
T1 sequence (Q07869 167-468 limits assumed): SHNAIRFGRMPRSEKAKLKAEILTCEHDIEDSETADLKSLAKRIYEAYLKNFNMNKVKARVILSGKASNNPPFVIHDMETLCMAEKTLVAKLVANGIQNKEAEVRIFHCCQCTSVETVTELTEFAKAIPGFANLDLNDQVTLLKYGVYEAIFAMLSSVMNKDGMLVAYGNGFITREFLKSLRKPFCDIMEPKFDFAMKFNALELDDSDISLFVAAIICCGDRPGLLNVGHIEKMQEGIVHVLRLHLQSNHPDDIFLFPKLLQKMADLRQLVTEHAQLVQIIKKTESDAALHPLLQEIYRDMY
Description: (§1) Background information on the performed assays can be found in: Nichols J S et al. “Development of a scintillation proximity assay for peroxisome proliferator-activated receptor gamma ligand binding domain”, (1998) Anal. Biochem. 257: 112-119.
(§2) Full-length cDNA clones for humans PPARδ and PPARα and mouse PPARγ were obtained by RT-PCR from human adipose and mouse liver cRNA, respectively, cloned into plasmid vectors and verified by DNA sequencing. Bacterial and mammalian expression vectors were constructed to produce glutathione-s-transferase (GST) and Gal4 DNA binding domain proteins fused to the ligand binding domains (LBD) of PPARδ (aa 139 to 442), PPARγ (aa 174 to 476) and PPARα (aa 167 to 469). To accomplish this, the portions of the cloned sequences encoding the LBDs were amplified from the full-length clones by PCR and then subcloned into the plasmid vectors. Final clones were verified by DNA sequence analysis.
(§3) Induction, expression, and purification of GST-LBD fusion proteins were performed in E. coli strain BL21 (pLysS) cells by standard methods (Ref: Current Protocols in Molecular Biology, Wiley Press, edited by Ausubel et al.).
(§4) PPARα receptor binding was assayed in TKE50 (50 mM Tris-HCl, pH 8, 50 mM KCl, 2 mM EDTA, 0.1 mg/ml fatty acid-free BSA and 10 mM DTT). For each 96 well reaction an 140 ng equivalent of GST-PPARα-LBD fusion protein was bound to 10 μg SPA beads (PharmaciaAmersham) in a final volume of 50 μl by shaking. The resulting slurry was incubated for 1 h at RT and centrifuged for 2 min at 1300 g. The supernatant containing unbound protein was removed and the semidry pellet containing the receptor-coated beads was resolved in 50 μl of TKE. For radioligand binding e.g. 10000 dpm of 2(S)-(2-benzoyl-phenylamino)-3-{4-[1,1-d]tritio-2-(5-methyl-2-phenyl-oxazol-4-yl)-ethoxy]-phenyl}-propionic acid or 2,3-ditritio-2(S)-methoxy-3-{4-[2-(5-methyl-2-phenyl-oxazol-4-yl)-ethoxy]-benzo[b]thiophen-7-yl}-propionic acid in 50 ul were added, the reaction incubated at RT for 1 h and scintillation proximity counting performed. All binding assays were performed in 96 well plates and the amount of bound ligand measured on a Packard TopCount using OptiPlates (Packard). Nonspecific binding was determined in the presence of 10^−4 M unlabelled compound. Dose response curves were done in triplicates within a range of concentration from 10^−10 M to 10^−4 M.

[2] = target: T2, PPARγ (Mus musculus, UniProt P37238); experiment: Radioligand binding assay (SPA), PPARγ receptor binding; settings: GST-PPARγ-LBD fusion protein
T2 construct: PPARγ (aa 174 to 476); made in house; host or cells: E. coli BL21 (pLysS)
T2 sequence (P37238 204-505): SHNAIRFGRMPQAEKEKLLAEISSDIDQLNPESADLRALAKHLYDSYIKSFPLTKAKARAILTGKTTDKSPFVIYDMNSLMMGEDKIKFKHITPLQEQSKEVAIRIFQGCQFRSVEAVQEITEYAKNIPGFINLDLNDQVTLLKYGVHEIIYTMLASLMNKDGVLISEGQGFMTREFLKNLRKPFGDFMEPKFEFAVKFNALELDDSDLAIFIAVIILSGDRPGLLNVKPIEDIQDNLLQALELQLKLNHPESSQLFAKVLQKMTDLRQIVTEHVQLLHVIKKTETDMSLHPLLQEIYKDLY
Description: as §1, §2, §3
as §4, with “PPARγ receptor” for “PPARα receptor”, “of GST-PPARγ-LBD” for “of GST-PPARα-LBD”, “50 ul” for “50 μl”, “dpm 2(S)-(2-benzoyl-phenylamino)-3-{4-[1,1-ditritio-2-(5-methyl-2-phenyl-oxazol-4-yl)-ethoxy]-phenyl}-propionic” for “dpm of 2(S)-(2-benzoyl-phenylamino)-3-{4-[1,1-d]tritio-2-(5-methyl-2-phenyl-oxazol-4-yl)-ethoxy]-phenyl}-propionic acid or 2,3-ditritio-2(S)-methoxy-3-{4-[2-(5-methyl-2-phenyl-oxazol-4-yl)-ethoxy]-benzo[b]thiophen-7-yl}-propionic”, “50 μl” for “50 ul”

[3] = target: T3, PPARδ (Homo sapiens, UniProt Q03181); experiment: Radioligand binding assay (SPA), PPARδ receptor binding; settings: GST-PPARδ-LBD fusion protein
T3 construct: PPARδ (aa 139 to 442); made in house; host or cells: E. coli BL21 (pLysS)
T3 sequence (Q03181 139-441 limits assumed): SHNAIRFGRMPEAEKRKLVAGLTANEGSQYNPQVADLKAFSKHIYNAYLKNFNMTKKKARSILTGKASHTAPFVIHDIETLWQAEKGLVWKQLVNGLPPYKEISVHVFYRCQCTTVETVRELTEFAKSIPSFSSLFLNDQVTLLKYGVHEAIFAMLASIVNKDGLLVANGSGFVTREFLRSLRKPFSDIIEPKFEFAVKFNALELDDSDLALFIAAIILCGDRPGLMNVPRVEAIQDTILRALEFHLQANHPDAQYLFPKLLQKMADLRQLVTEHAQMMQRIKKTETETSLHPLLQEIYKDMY
Description: as §1, §2, §3
PPARδ receptor binding was assayed in HNM10 (50 mM Hepes, pH 7.4, 10 mM NaCl, 5 mM MgCl2, 0.15 mg/ml fatty acid-free BSA and 15 mM DTT). For each 96 well reaction a 500 ng equivalent of GST-PPARδ-LBD fusion protein and radioligand, e.g. 20000 dpm {2-methyl-4-[4-methyl-2-(4-trifluoromethyl-phenyl)-thiazol-5-yl-ditritiomethylsulfanyl]-phenoxy}-acetic acid, was bound to 10 μg SPA beads (PharmaciaAmersham) in a final volume of 50 μl by shaking. The resulting slurry was incubated for 1 h at RT and centrifuged for 2 min at 1300 g. The supernatant containing unbound protein was removed and the semidry pellet containing the receptor-coated beads was resuspended in 50 ul of HNM. Radioligand was added and the reaction incubated at RT for 1 h and scintillation proximity counting performed in the presence of test compounds was determined. All binding assays were performed in 96 well plates and the amount of bound ligand was measured on a Packard TopCount using OptiPlates (Packard). Dose response curves were done in triplicates within a range of concentration from 10^−10 M to 10^−4 M.

## Cc1cc(N(C)Cc2sc(-c3ccc(C(F)(F)F)cc3)nc2C)ccc1OCC(=O)O [Example 1.6, (2-Methyl-4-{methyl-[4-methyl-2-(4-trifluoromethyl-phenyl)-thiazol-5-ylmethyl]-amino}-phenoxy)-acetic acid]
[1]
  IC50: 1750 nM
[2]
  IC50: > 10000 nM
[3]
  IC50: 17.7 nM
other
  melting point: 146 to 149 °C (dec.)

## Cc1nc(-c2ccc(C(F)(F)F)cc2)sc1CN(C)c1ccc(OCC(=O)O)c(Cl)c1 [Example 4.6, (2-Chloro-4-{methyl-[4-methyl-2-(4-trifluoromethyl-phenyl)-thiazol-5-ylmethyl]-amino}-phenoxy)-acetic acid]
[1]
  IC50: 412 nM
[2]
  IC50: > 10000 nM
[3]
  IC50: 21 nM
other
  melting point: 149 to 150 °C (dec.)

## Cc1nc(-c2ccc(C(F)(F)F)cc2)sc1CN(C)c1ccc(OCC(=O)O)c(F)c1 [Example 5.7, (2-Fluoro-4-{methyl-[4-methyl-2-(4-trifluoromethyl-phenyl)-thiazol-5-ylmethyl]-amino}-phenoxy)-acetic acid]
[1]
  IC50: 1060 nM
[2]
  IC50: > 10000 nM
[3]
  IC50: 49.8 nM
other
  melting point: 113 to 114 °C

## Cc1nc(-c2ccc(C(F)(F)F)cc2)sc1CN(C)c1ccc(OCC(=O)O)c(C(F)(F)F)c1 [Example 6.8, (4-{Methyl-[4-methyl-2-(4-trifluoromethyl-phenyl)-thiazol-5-ylmethyl]-amino}-2-trifluoromethyl-phenoxy)-acetic acid]
[1]
  IC50: 463 nM
[2]
  IC50: > 10000 nM
[3]
  IC50: 16.2 nM
other
  melting point: 180 to 181 °C

## CCc1cc(N(C)Cc2sc(-c3ccc(C(F)(F)F)cc3)nc2C)ccc1OCC(=O)O [Example 7.8, (2-Ethyl-4-{methyl-[4-methyl-2-(4-trifluoromethyl-phenyl)-thiazol-5-ylmethyl]-amino}-phenoxy)-acetic acid]
[1]
  IC50: 308 nM
[2]
  IC50: 2210 nM
[3]
  IC50: 10.1 nM
other
  melting point: 142 to 143 °C (dec.)

## COc1cc(N(C)Cc2sc(-c3ccc(C(F)(F)F)cc3)nc2C)ccc1OCC(=O)O [Example 8.7, (2-Methoxy-4-{methyl-[4-methyl-2-(4-trifluoromethyl-phenyl)-thiazol-5-ylmethyl]-amino}-phenoxy)-acetic acid]
other
  melting point: 129 to 131 °C (dec.)

## COCCCc1cc(N(C)Cc2sc(-c3ccc(C(F)(F)F)cc3)nc2C)ccc1OCC(=O)O [Example 13.10, (2-(3-Methoxy-propyl)-4-{methyl-[4-methyl-2-(4-trifluoromethyl-phenyl)-thiazol-5-ylmethyl]-amino}-phenoxy)-acetic acid]
[1]
  IC50: 3960 nM
[2]
  IC50: > 10000 nM
[3]
  IC50: 34 nM
other
  melting point: 142 to 143 °C

## Cc1cc(N(C)Cc2oc(-c3ccc(C(F)(F)F)cc3)nc2C)ccc1OCC(=O)O [Example 14, (2-Methyl-4-{methyl-[4-methyl-2-(4-trifluoromethyl-phenyl)-oxazol-5-ylmethyl]-amino}-phenoxy)-acetic acid]
other
  melting point: 156 to 157 °C

## CCN(Cc1sc(-c2ccc(C(F)(F)F)cc2)nc1C)c1cc(C)c(OCC(=O)O)c(C)c1 [Example 15.5, (4-{Ethyl-[4-methyl-2-(4-trifluoromethyl-phenyl)-thiazol-5-ylmethyl]-amino}-2,6-dimethyl-phenoxy)-acetic acid]
other
  melting point: 161 to 162 °C

## Cc1cc(N(C)Cc2oc(-c3ccc(C(F)(F)F)cc3)nc2C)cc(C)c1OCC(=O)O [Example 16.4, (2,6-Dimethyl-4-{methyl-[4-methyl-2-(4-trifluoromethyl-phenyl)-oxazol-5-ylmethyl]-amino}-phenoxy)-acetic acid]
other
  melting point: 122 to 123 °C

## Cc1cc(NCc2sc(-c3ccc(C(F)(F)F)cc3)nc2C)ccc1OCC(=O)O [Example 18.3, (2-Methyl-4-{[4-methyl-2-(4-trifluoromethyl-phenyl)-thiazol-5-ylmethyl]-amino}-phenoxy)-acetic acid]
other
  melting point: 201 to 203 °C (dec.)

## CCN(Cc1sc(-c2ccc(C(F)(F)F)cc2)nc1C)c1ccc(OCC(=O)O)c(C)c1 [Example 19.2, (4-{Ethyl-[4-methyl-2-(4-trifluoromethyl-phenyl)-thiazol-5-ylmethyl]-amino}-2-methyl-phenoxy)-acetic acid]
other
  melting point: 147 to 154 °C (dec.)

## Cc1nc(-c2ccc(C(F)(F)F)cc2)sc1CN(C)c1ccc(OCC(=O)O)c(I)c1 [Example 20.8, (2-Iodo-4-{methyl-[4-methyl-2-(4-trifluoromethyl-phenyl)-thiazol-5-ylmethyl]-amino}-phenoxy)-acetic acid]
other
  melting point: 172.5 to 173 °C
